Laboratory results from US7718677B2, “Methods and compositions for reduction of side effects of therapeutic treatments” (priority 2007, dated 2010).
Like-named read-outs stand apart in the source and are kept apart here.

Assays:
levodopa-primed monkeys = system: levodopa-primed monkeys
Description: Levodopa administration: Monkeys were administered levodopa/carbidopa (5 mg/kg and 1.25 mg/kg, respectively), prepared by crushing a tablet of Sinemet® CR 100/25 (DuPont Pharma) and dissolving it in water. This dose of levodopa is within the range of that prescribed to Parkinson's disease patients. The monkeys were gavaged twice daily at 3.5-hour intervals for 8 weeks at a time using a 5-day-on/2-day-off schedule (Hsu et al., J Pharmacol Exp Ther. 2004; 311:770-777). During levodopa treatment, the monkeys were given fruits in the morning and food pellets 3.5 hours after the afternoon levodopa dose to optimize gastrointestinal absorption.
Dyskinesias were rated from videotapes, as described (Hsu et al., J Pharmacol Exp Ther. 2004; 311:770-777). This included a one hour baseline period (no drugs) from ˜8:00-9:00 AM, followed by two 3.5-hour treatment periods with levodopa starting at ˜9:00 AM and ˜12:30 PM. Dyskinesias were rated for 2-minute periods at 30-minute intervals by two independent raters blinded to treatment. They were rated on a scale of 0 (no dyskinesias) to 4; a score of 1 was indicative of subtle dyskinesias that were not sustained; 2, mild dyskinesias that were sustained; 3, moderate dyskinesias that impaired the ability to remain stationary; 4, severe dyskinesias that were generalized and incapacitating.
Data analyses: The levodopa treatment protocol used in the present study involved a 5-day-on/2-day-off schedule. Parkinsonian ratings were done on Monday and Friday of each week, with the score averaged over the two days. Dyskinesias ratings were determined by averaging the scores on Wednesday and Thursday of each week. All values are expressed as the mean±SE of the indicated number of animals. Results were compared using paired t-tests or analysis of variance (ANOVA) followed by Bonferroni multiple comparison post hoc test, using Prism® program (GraphPad Software, Inc, San Diego, Calif.). A level of 0.05 was considered significant.
Materials and methods were the same as in example 1.
A crossover study, was then conducted, in which the animals originally receiving nicotine were given vehicle (n=3), while the vehicle-treated animals were now administered nicotine (n=4). Levodopa treatment was stopped. […] Monkeys that had previously received nicotine were placed on vehicle drinking water for the same time period. All monkeys were then treated with levodopa (5 mg/kg, twice daily 3.5 hours apart) for a subsequent 8-week period. Since both groups of monkeys had previously received levodopa, they were termed levodopa-primed.

[1] = system: 6-hydroxydopamine-lesioned rats; settings: for L-dopa-induced AIMs, time course: L-dopa 8 then 12 mg/kg ip, ANOVA P<0.001; for L-dopa-induced AIMs, crossover to nicotine: rats initially without nicotine then given nicotine
Description: Animals. Experiments were performed using male Sprague-Dawley rats (initial weight 250 g) purchased from Charles River Laboratories (Gilroy, Calif.). They were housed 2 per cage under a 12-12 h light-dark cycle in a temperature-controlled room with free access to food and water. Three to four days after arrival, the rats were unilaterally lesioned with 6-hydroxydopamine as previously described (Cenci et al., 1998 Eur J Neurosci 10:2694-2706.; Cenci et al., 2002 Nat Rev Neurosci 3:574-579). During the lesioning procedure the rats were maintained under isofluorane anesthesia (2%). They were placed in a Kopf stereotaxic instrument and burr holes drilled through the skull at the following coordinates relative to the Bregma and dural surface: (1) anteroposterior, −4.4; lateral, 1.2; ventral, 7.8; tooth bar at −2.4; (2) anteroposterior, −4.0; lateral, 0.75; ventral, 8.0; tooth bar at +3.4 (Cenci et al., 1998 Eur J Neurosci 10:2694-2706.; Cenci et al., 2002 Nat Rev Neurosci 3:574-579). 6-Hydroxydopamine was dissolved in 0.02% ascorbic acid/saline at a concentration of 3 ug/ul. Two μl was stereotaxically injected at each of these sites for a total of […] into the right ascending dopamine fiber bundle. Infusion of 6-hydroxydopamine into the target area was over a 2-min period, with the cannula maintained at the site of injection for a further 2 min. All procedures conformed to the NIH Guide for the Care and Use of Laboratory Animals and were approved by the Institutional Animal Care and Use Committee.
Behavioral testing. Two and three weeks after lesioning, rats were tested for rotational behavior in an automated behavioral measurement apparatus (ROTOMAX, AccuScan Instruments Inc. Columbus, Ohio, USA). Each rat was placed in a cylindrical glass chamber for 30 min for acclimatization, after which amphetamine (4.0 mg/kg ip) was administered. The behavior was monitored for an additional 90 min, with rats making at least 100 ipsilateral turns used for further study.
Nicotine treatment. When the behavioral testing was completed, rats were treated with nicotine via the drinking water that yields an intermittent dosing regimen or via minipump that provides a constant level of nicotine. For administration via the drinking water, rats were first provided with a solution containing 1% saccharin (Sigma Chemical Co., St. Louis, Mo.) to mask the bitter taste of nicotine. After 2-3 days of acclimation, nicotine (free base, Sigma Chemical Co., St. Louis, Mo.) was added to the saccharin-containing drinking solution of the treated group (pH 7.0). Nicotine was initially given at a concentration of 25 μg/ml nicotine for 2 days.
In a separate series of experiments, rats were given nicotine continuously via Alzet minipumps (model 2004-200 μl), which secrete nicotine for 28 days. These were subcutaneously implanted according to the manufacturer's instruction. Pumps were filled with either sterilized water or nicotine base in water to deliver 2 mg/kg/d.
L-dopa treatment. Three weeks after initiation of the 50 ug/ml nicotine dose, the rats received single daily intraperitoneal injections of 8 mg/kg L-dopa methyl ester plus 15 mg/kg benserazide (both from Sigma Chemical Co., St. Louis, Mo.) (Cenci et al., 1998 Eur J Neurosci 10:2694-2706.; Cenci et al., 2002 Nat Rev Neurosci 3:574-579). After 3 weeks of daily L-dopa dosing, abnormal involuntary movements (AIMs) were quantified. These included (1) axial dystonia, contralateral twisted posturing of the neck and upper body; (2) orolingual dyskinesia, stereotyped jaw movements and contralateral tongue protrusion; and (3) forelimb dyskinesia, repetitive rhythmic jerks or dystonic posturing of the contralateral forelimb and/or grabbing movements of the contralateral paw (Cenci et al., 1998 Eur J Neurosci 10:2694-2706.; Cenci et al., 2002 Nat Rev Neurosci 3:574-579; Carta et al., 2006 Neurochem 96:1718-1727).

[2] = nicotine in Gatorade up to 650 μg/ml
Description: Nicotine treatment: All monkeys (n=7) were then given a drinking solution for 3 weeks consisting of commercially available orange Gatorade® to mask nicotine's bitter taste (FIG. 1). The control group (n=4) was continued on Gatorade® only, while nicotine (free base) was added to the Gatorade of the treated group (n=3). Nicotine dosing was started at 50 μg/ml for 1 week, 150 μg/ml for 1 week, with the concentration increased by 150 μg increments/week over the next few weeks, up to 650 μg/ml (FIG. 1).

[3] = system: 6-hydroxydopamine-lesioned rats; settings: ROTOMAX, AccuScan System; n=9; saccharin group 8.2+3.7, no difference
Description: Behavioral assessment of the lesion. As an index of nigrostriatal damage, the rats were tested for rotational behavior 3 and 4 weeks after lesioning. This was done using an automated behavioral measurement apparatus that has four cylindrical chambers (50 cm height×34 cm diameter) (ROTOMAX, AccuScan Instruments Inc. Columbus, Ohio, USA). A rat was placed in one of the chambers for 30 min for acclimatization, after which time amphetamine (4 mg/kg ip) was administered as previously described (Visanji et al., 2006, Neuropharmacology 51:506-516). […] The rats were tested a second time one week later and the data from the two testing periods pooled.

CN1CCCC1c1cccnc1 (stereo not drawn) [Nicotine, S-3-(1-methyl-2-pyrrolidinyl)pyridine]
total dyskinetic scores after removal of nicotine (levodopa-primed monkeys; animals removed from nicotine treatment, week 4, 6 and 8 of levodopa treatment): significantly enhanced | reduction of dyskinesias (levodopa-primed monkeys; levodopa-primed monkeys): ~35% | duration of dyskinesias (levodopa-primed monkeys; levodopa-primed monkeys switched to nicotine): decrease | peak dyskinesias (levodopa-primed monkeys; levodopa-primed monkeys switched to nicotine, last 4 weeks of levodopa treatment): significantly reduced | total dyskinesias (levodopa-primed monkeys; levodopa-primed monkeys switched to nicotine, vs same animal before crossover, all time points, paired t-tests): significantly reduced | individual AIM components (total, axial, oral, forelimb) ([1]; constant nicotine 2 mg/kg/d via minipump vs no nicotine, FIG. 15): reduced | L-dopa-induced AIMs, time course ([1]; continuous nicotine 2 mg/kg/d via minipump, FIG. 14): significant effect | AIMs development after removal of nicotine ([1]; drinking water, rats initially on nicotine then given saccharin, FIG. 13): increase | L-dopa-induced AIMs, crossover to nicotine ([1]; drinking water, FIG. 13): reduced | L-dopa-induced AIMs, time course ([1]; intermittent nicotine 50 μg/ml in drinking water, FIG. 11): significant effect | individual AIM components (total, axial, oral, forelimb) ([1]; intermittent nicotine in drinking solution vs saccharin only, FIG. 12): reduced | AIMs development after removal of nicotine ([1]; minipump, rats initially on nicotine then given minipumps containing no nicotine, FIG. 16): increase | L-dopa-induced AIMs, crossover to nicotine ([1]; minipump, FIG. 16): reduced | effects on body weight or fluid intake [2]: no significant effects | extent of turning [3]: 8.4+6.7
